Converted amounts (≈) assume the structure as drawn. Read-outs that look alike come from different tables or passages of the source.
Experiments:
Type in all cases: cell-based
[1] = test system: HIV-1/TIBO R82913 (103-Asn); test: Sensitivity of mutant HIV-1 strain in CEM cell cultures; settings: Human immunodeficiency virus 1, CCRF-CEM; CEM cells, Table 1; read-out: 50% Effective Concentration
Method in brief: (§1)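 Infect CEM cells (250,000 cells per ml) with virus at 100 CCID50/ml; add infected suspension to wells holding diluted compound; incubate 4 days, 37° C.; examine for syncytia.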

HIV-1/V(0.5) 103-Asn = test: as above; settings: Human immunodeficiency virus 1, CCRF-CEM; Table 5; read-out: EC50
Method in brief: as §1

[2] = test system: HIV-1/TSAO-m^3 T (138-Lys); test: as above; settings: Human immunodeficiency virus 1, CCRF-CEM; CEM cells, Table 1; read-out: 50% Effective Concentration
Method in brief: as §1

HIV-1/Pyr (181-Cys) = test: as above; settings: Human immunodeficiency virus 1, CCRF-CEM; CEM cells, Table 1; read-out: 50% Effective Concentration
Method in brief: as §1

[3] = test system: HIV-1/V(0.1) 101-Ile + 141-Glu; test: as above; settings: Human immunodeficiency virus 1, CCRF-CEM; Table 5; read-out: EC50
Method in brief: as §1

HIV-1/III(0.1) 103-Asn = test: as above; settings: Human immunodeficiency virus 1, CCRF-CEM; Table 5; read-out: EC50
Method in brief: as §1

HIV-1/IV(0.1) 103-Thr = test: as above; settings: Human immunodeficiency virus 1, CCRF-CEM; Table 5; read-out: EC50
Method in brief: as §1

[4] = test system: HIV-1/TIBO R82150 (100-Ile); test: as above; settings: Human immunodeficiency virus 1, CCRF-CEM; CEM cells, Table 1; read-out: 50% Effective Concentration
Method in brief: as §1

HIV-1/Nev (106-Ala) = test: as above; settings: Human immunodeficiency virus 1, CCRF-CEM; CEM cells, Table 1; read-out: 50% Effective Concentration
Method in brief: as §1

HIV-1/I(0.1) 103-Asn = test: as above; settings: Human immunodeficiency virus 1, CCRF-CEM; Table 5; read-out: EC50
Method in brief: as §1

HIV-1/II(0.1) 100-Ile = test: as above; settings: Human immunodeficiency virus 1, CCRF-CEM; Table 5; read-out: EC50
Method in brief: as §1

HIV-1(IIIB) = test: Knock-out concentrations: breakthrough of HIV-1(IIIB)-induced cytopathicity in CEM cell cultures; settings: for activity at 0.1 µg/mL / activity at 0.5 µg/mL / activity at 2.5 µg/mL: Human immunodeficiency virus 1, IIIB, CCRF-CEM, read-out: HIV-1-induced cytopathicity in cell culture; for activity at 0.1 µg/mL: 0.1 μg/ml; for activity at 0.5 µg/mL: 0.5 μg/ml; for activity at 2.5 µg/mL: 2.5 μg/ml
Method in brief: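 CEM cells in RPMI 1640 with 10% FBS infected with HIV-1(IIIB) at ~1000× CCID50, subcultured every 3–4 days into fresh uninfected cells with drug held constant for 10 subcultivations (35 days), then ≥5 drug-free passages. Breakthrough scored by syncytium formation. Combinations used the two lowest single-drug starting concentrations.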

HIV-1(IIIB) (WT) = test: microbe, parasite or virus in culture; settings: Human immunodeficiency virus 1, IIIB, CCRF-CEM
Method in brief: as §1

[5] = 936 h, day 39 post infection, compound absent from day 35
[6] = 1008 h, day 42 post infection, compound absent from day 35
[7] = 1104 h, day 46 post infection, compound absent from day 35
[8] = 1176 h, day 49 post infection, compound absent from day 35
[9] = 1272 h, day 53 post infection, compound absent from day 35

## Cc1occc1C(=S)Nc1ccc(Cl)c(C(=O)OCC(C)C)c1 [Compound II]
[1]
  EC50: 0.45 µg/mL (≈ 1.28 µM)
HIV-1/V(0.5) 103-Asn
  EC50: 0.8 µg/mL (≈ 2.27 µM)
[2]
  EC50: 0.06 µg/mL (≈ 0.171 µM)
HIV-1/Pyr (181-Cys)
  EC50: 0.07 µg/mL (≈ 0.199 µM)
[3]
  EC50: 0.06 µg/mL (≈ 0.171 µM)
HIV-1/III(0.1) 103-Asn
  EC50: 0.16 µg/mL (≈ 0.455 µM)
HIV-1/IV(0.1) 103-Thr
  EC50: 0.4 µg/mL (≈ 1.14 µM)
[4]
  EC50: 0.19 µg/mL (≈ 0.54 µM)
HIV-1/Nev (106-Ala)
  EC50: 0.075 µg/mL (≈ 0.213 µM)
HIV-1/I(0.1) 103-Asn
  EC50: 0.15 µg/mL (≈ 0.426 µM)
HIV-1/II(0.1) 100-Ile
  EC50: 0.5 µg/mL (≈ 1.42 µM)
HIV-1(IIIB)
  prevention of virus breakthrough, fold more efficient than BHAP: at least 5 fold
  prevention of virus breakthrough, fold more efficient than nevirapine: ≥ 25 fold
HIV-1(IIIB); 96 h, day 4 post infection
  activity at 0.1 µg/mL: 0%
  activity at 0.5 µg/mL: 0%
  activity at 2.5 µg/mL: 0%
HIV-1(IIIB); 192 h, day 8 post infection
  activity at 0.1 µg/mL: 0%
  activity at 0.5 µg/mL: 0%
  activity at 2.5 µg/mL: 0%
HIV-1(IIIB); 264 h, day 11 post infection
  activity at 0.1 µg/mL: 0%
  activity at 0.5 µg/mL: 0%
  activity at 2.5 µg/mL: 0%
HIV-1(IIIB); 336 h, day 14 post infection
  activity at 0.1 µg/mL: 12.5%
  activity at 0.5 µg/mL: 0%
  activity at 2.5 µg/mL: 0%
HIV-1(IIIB); 408 h, day 17 post infection
  activity at 0.1 µg/mL: 50%
  activity at 0.5 µg/mL: 0%
  activity at 2.5 µg/mL: 0%
HIV-1(IIIB); 504 h, day 21 post infection
  activity at 0.1 µg/mL: 100%
  activity at 0.5 µg/mL: 0%
  activity at 2.5 µg/mL: 0%
HIV-1(IIIB); 600 h, day 25 post infection
  activity at 0.1 µg/mL: 100%
  activity at 0.5 µg/mL: 0%
  activity at 2.5 µg/mL: 0%
HIV-1(IIIB); 672 h, day 28 post infection
  activity at 0.1 µg/mL: 100%
  activity at 0.5 µg/mL: 0%
  activity at 2.5 µg/mL: 0%
HIV-1(IIIB); 768 h, day 32 post infection
  activity at 0.1 µg/mL: 100%
  activity at 0.5 µg/mL: 0%
  activity at 2.5 µg/mL: 0%
HIV-1(IIIB); 840 h, day 35 post infection
  activity at 0.1 µg/mL: 100%
  activity at 0.5 µg/mL: 0%
  activity at 2.5 µg/mL: 0%
HIV-1(IIIB); [5]
  activity at 0.1 µg/mL: 100%
  activity at 0.5 µg/mL: 0%
  activity at 2.5 µg/mL: 0%
HIV-1(IIIB); [6]
  activity at 0.1 µg/mL: 100%
  activity at 0.5 µg/mL: 0%
  activity at 2.5 µg/mL: 0%
HIV-1(IIIB); [7]
  activity at 0.1 µg/mL: 100%
  activity at 0.5 µg/mL: 0%
  activity at 2.5 µg/mL: 0%
HIV-1(IIIB); [8]
  activity at 0.1 µg/mL: 100%
  activity at 0.5 µg/mL: 0%
  activity at 2.5 µg/mL: 0%
HIV-1(IIIB); [9]
  activity at 0.1 µg/mL: 100%
  activity at 0.5 µg/mL: 0%
  activity at 2.5 µg/mL: 0%
HIV-1(IIIB); tested at 0.1, 0.5 and 2.5 μg/ml, 35 days
  concentration at which virus emerged (virus breakthrough): 0.1 µg/mL
HIV-1(IIIB) (WT); CEM cells, Table 1, read-out: 50% Effective Concentration
  EC50: 0.01 µg/mL (≈ 0.0284 µM)
HIV-1(IIIB) (WT); HIV-1 (III8), Table 5, read-out: EC50
  EC50: 0.007 µg/mL (≈ 0.0199 µM)
HIV-1(IIIB) (WT); range stated for Compounds I-V together, read-out: 50% inhibitory concentration, HIV-1(IIIB) replication in CEM cells
  IC50: 0.004 to 0.05 µg/mL (≈ 0.0114 to 0.142 µM)
